Results reported in ChEMBL document CHEMBL1201862, “PubChem BioAssay data set” (2004).
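Grown in 96-well plates, cells were treated for 48 hours with each compound at five concentrations. Insufficient inhibition: endpoint recorded as highest concentration tested. Abbreviation: GI50, concentration required for 50% inhibition of growth.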 Activity calls are given as the source filed them. Cut-off read from the data, not from the text of the source: active = GI50 up to about 1.1 µM and inactive = higher.

How the values were obtained:
Test in all cases: growth of human tumour cells (NCI), 48 h
Hs-578T = tested on: Hs-578T
A549 = tested on: A549
HOP-62 = tested on: HOP-62
SF-539 = tested on: SF-539
COLO 205 = tested on: COLO 205
TK-10 = tested on: TK-10
SR = tested on: SR
CAKI-1 = tested on: CAKI-1
UO-31 = tested on: UO-31
NCI-H23 = tested on: NCI-H23
HOP-92 = tested on: HOP-92
HCT-15 = tested on: HCT-15
RXF 393 = tested on: RXF 393
SNB-19 = tested on: SNB-19
IGROV-1 = tested on: IGROV-1
HL-60 = tested on: HL-60
ACHN = tested on: ACHN
DU-145 = tested on: DU-145
LOX IMVI = tested on: LOX IMVI
MDA-N = tested on: MDA-N

Structure (SMILES) | GI50 (Hs-578T) | GI50 (A549) | GI50 (HOP-62) | GI50 (SF-539) | GI50 (COLO 205) | GI50 (TK-10) | GI50 (SR) | GI50 (CAKI-1) | GI50 (UO-31) | GI50 (NCI-H23) | GI50 (HOP-92) | GI50 (HCT-15) | GI50 (RXF 393) | GI50 (SNB-19) | GI50 (IGROV-1) | GI50 (HL-60) | GI50 (ACHN) | GI50 (DU-145) | GI50 (LOX IMVI) | GI50 (MDA-N)
O=C(CC(=O)N1N=C(N(c2ccccc2)c2ccccc2)CC1c1ccccc1)Nc1ccccc1 (stereo not given) | 42.5 µM (inactive) | > 100 µM (inactive) | 48.5 µM (inactive) | > 100 µM (inactive) | > 100 µM (inactive) | > 100 µM (inactive) | 37.7 µM (inactive) | > 100 µM (inactive) | > 100 µM (inactive) | > 100 µM (inactive) | > 100 µM (inactive) | > 100 µM | 49.8 µM (inactive) | 78 µM (inactive) | > 100 µM (inactive) | > 100 µM (inactive) | > 100 µM (inactive) | > 100 µM (inactive) |  | 
C=CCN(c1cc(O)c2c(c(C)cn2S(=O)(=O)c2ccccc2)c1[N+](=O)[O-])S(C)(=O)=O | > 100 µM (inactive) | 56.5 µM (inactive) | > 100 µM (inactive) | > 100 µM (inactive) | > 100 µM (inactive) | > 100 µM (inactive) |  | > 100 µM (inactive) | > 100 µM (inactive) | > 100 µM (inactive) | > 100 µM (inactive) | > 100 µM | 56 µM (inactive) | > 100 µM (inactive) | > 100 µM (inactive) | > 100 µM (inactive) | 81.1 µM (inactive) | > 100 µM (inactive) | 69.2 µM (inactive) | 36.9 µM (inactive)
Cc1cc(C)nc(NS(=O)(=O)c2ccc(NC(=O)NC(F)(F)F)cc2)n1 | > 100 µM (inactive) | > 100 µM (inactive) |  | > 100 µM (inactive) | > 100 µM (inactive) | > 100 µM (inactive) | > 100 µM (inactive) | 1.95 µM (inactive) | > 100 µM (inactive) | > 100 µM (inactive) |  | > 100 µM | > 100 µM (inactive) | > 100 µM (inactive) | > 100 µM (inactive) | > 100 µM (inactive) | > 100 µM (inactive) |  | > 100 µM (inactive) | > 100 µM (inactive)
CC(C)OC(=O)[C@H]1ON2O[C@H](O[C@@H]3CCCC[C@H]3c3ccccc3)C([Si](C)(C)c3ccccc3)[C@H]3OC(=O)[C@@H]1C32 (stereo not given in full) | > 100 µM (inactive) | > 100 µM (inactive) | > 100 µM (inactive) | > 100 µM (inactive) | > 100 µM (inactive) | > 100 µM (inactive) | 21.2 µM (inactive) | > 100 µM (inactive) | > 100 µM (inactive) | > 100 µM (inactive) | > 100 µM (inactive) | > 100 µM | > 100 µM (inactive) | > 100 µM (inactive) | > 100 µM (inactive) | > 100 µM (inactive) | > 100 µM (inactive) | > 100 µM (inactive) | > 100 µM (inactive) | 
Oc1ccc2c(c1)c1c(n2CCN2CCOCC2)-c2ccccc2CC1 | 20.6 µM (inactive) |  | 24.7 µM (inactive) | 21.3 µM (inactive) |  | 29.4 µM (inactive) | 24.8 µM (inactive) | 33.7 µM (inactive) | 23.6 µM (inactive) | 27.8 µM (inactive) |  | 25.6 µM | 29.6 µM (inactive) | 24.8 µM (inactive) | 15.1 µM (inactive) | 42.3 µM (inactive) | 28.2 µM (inactive) |  | 23.6 µM (inactive) | 45.4 µM (inactive)
CSc1s[s+]c(SC)c1-c1ccccc1 | 25.4 µM (inactive) | 28.1 µM (inactive) | 14.6 µM (inactive) | 18.2 µM (inactive) | 18.4 µM (inactive) | 15.5 µM (inactive) |  | 17.1 µM (inactive) | 18.4 µM (inactive) | 16.9 µM (inactive) | 13.2 µM (inactive) | 16.4 µM | 16.3 µM (inactive) | 16.6 µM (inactive) | 17.6 µM (inactive) | 28.9 µM (inactive) | 16.3 µM (inactive) | 70.1 µM (inactive) | 25.9 µM (inactive) | 16.7 µM (inactive)
O=C(O)c1ccc(C=C2Sc3ccccc3S2)cc1 | 24 µM (inactive) | 43.2 µM (inactive) | 81.5 µM (inactive) | > 100 µM (inactive) | 92.7 µM (inactive) | 75.9 µM (inactive) |  | 45.3 µM (inactive) | 63.8 µM (inactive) | > 100 µM (inactive) | 64.4 µM (inactive) | 37.2 µM | 54.5 µM (inactive) | 73.8 µM (inactive) | 82.8 µM (inactive) | 35 µM (inactive) | 22.6 µM (inactive) | > 100 µM (inactive) | 52 µM (inactive) | 29 µM (inactive)
CC1(C(=O)O)CCCC1C(=O)O (stereo not given) | > 100 µM (inactive) | > 100 µM (inactive) | > 100 µM (inactive) |  |  | > 100 µM (inactive) |  | > 100 µM (inactive) | > 100 µM (inactive) | > 100 µM (inactive) | > 100 µM (inactive) | > 100 µM | > 100 µM (inactive) | > 100 µM (inactive) | > 100 µM (inactive) | > 100 µM (inactive) | > 100 µM (inactive) | > 100 µM (inactive) | > 100 µM (inactive) | > 100 µM (inactive)
N#CC(C#N)=C1CCCCc2ccc([N+](=O)[O-])cc21 | > 100 µM (inactive) | > 100 µM (inactive) | > 100 µM (inactive) | > 100 µM (inactive) | > 100 µM (inactive) | > 100 µM (inactive) |  | 95.7 µM (inactive) | 92.9 µM (inactive) | > 100 µM (inactive) | > 100 µM (inactive) | 63.7 µM | 40.6 µM (inactive) | > 100 µM (inactive) | > 100 µM (inactive) | 29 µM (inactive) | 93.5 µM (inactive) | > 100 µM (inactive) | 76.2 µM (inactive) | 51.6 µM (inactive)
CC1(C)C2CCC(CN)(C2)C1N (stereo not given) | > 100 µM (inactive) | > 100 µM (inactive) | > 100 µM (inactive) | > 100 µM (inactive) | > 100 µM (inactive) | > 100 µM (inactive) |  | > 100 µM (inactive) | > 100 µM (inactive) | > 100 µM (inactive) | > 100 µM (inactive) | > 100 µM | > 100 µM (inactive) | > 100 µM (inactive) | > 100 µM (inactive) | > 100 µM (inactive) | > 100 µM (inactive) | > 100 µM (inactive) | > 100 µM (inactive) | > 100 µM (inactive)
COC(=O)[C@H](Cc1ccccc1)NC(=O)N(CCN(CCC#N)C(=O)N[C@H](C(=O)OC)C(C)C)c1ccccc1 | > 100 µM (inactive) | > 100 µM (inactive) | > 100 µM (inactive) | > 100 µM (inactive) | > 100 µM (inactive) | > 100 µM (inactive) |  | > 100 µM (inactive) | > 100 µM (inactive) | > 100 µM (inactive) | 22.8 µM (inactive) | > 100 µM | > 100 µM (inactive) | > 100 µM (inactive) | 57.5 µM (inactive) |  | > 100 µM (inactive) | > 100 µM (inactive) | > 100 µM (inactive) | > 100 µM (inactive)
